The text below walks through data of US8183371B2, “Pyrazines as delta opioid receptor modulators” (Janssen Pharmaceutica NV, priority 2009, dated 2012).

Structures are written as SMILES. Read-outs that look alike come from different tables or passages of the source.

One experiment addresses T1, mu opioid receptor (Rattus norvegicus, UniProt P33535).
T1 construct: from tissue; host or cells: forebrain of male Wistar rats
The experiment can be described thus: Rat brain mu opioid receptor binding assay. The note with it: rat forebrain membranes; ~0.8 nM [3H]DAMGO; read-out: μ-binding Ki. Here is the method: (§1) Procedure: Male, Wistar rats (150-250 g, VAF, Charles River, Kingston, N.Y.) were killed by CO2, and their brains were removed and placed immediately in ice cold Tris HCl buffer (50 mM, pH 7.4). The forebrains were separated from the remainder of the brain by a coronal transection, beginning dorsally at the colliculi and passing ventrally through the midbrain-pontine junction. After dissection, the forebrains were homogenized in Tris buffer in a Teflon®-glass homogenizer. The homogenate was diluted to a concentration of 1 g of forebrain tissue per 80 mL Tris and centrifuged at 39,000×g for 10 min. The pellet was resuspended in the same volume of Tris buffer containing 5 mM MgCl2 with several brief pulses from a Polytron homogenizer. This particulate preparation was used for the mu opioid binding assays. Following incubation with the mu selective peptide ligand, ˜0.8 nM [^3H]DAMGO, at 25° C. for 2.5 h in a 96-well plate with total assay volume of 1 mL, the plate contents were filtered through Wallac filtermat B sheets on a Tomtec 96-well harvester. The filters were rinsed three times with 2 mL of 10 mM HEPES (pH 7.4) and dried in a 650 W microwave oven for 1.75 min twice. To each sample area 2×40 μL of Betaplate Scint scintillation fluid (LKB) was added and the radioactivity was quantified on a LKB (Wallac) 1205 BetaPlate liquid scintillation counter.
(§2) Analysis: The data from the scintillation counter were used to calculate either the % inhibition compared to control binding (when only a single concentration of test compound was evaluated) or a Ki value (when a range of concentrations was tested). Percent inhibition was calculated as: [(total dpm−test compound dpm)/(total dpm−nonspecific dpm)]*100. Kd and Ki values were calculated using GraphPad PRISM data analysis program.

A further experiment has as its target T2, δ-opioid receptor (Mus musculus, UniProt P32300).
T2 construct: NG108-15 cell membranes were purchased from Applied Cell Sciences (Rockville, Md.); host or cells: NG108-15 cell membranes (purchased)
The experiment can be described thus: [35S]GTPγS binding assay in NG108-15 cell membranes (delta opioid functional assay). In kind it is biochemical. As to conditions: for inhibition at 10 µM: 10 μM compound, read-out: GTPγS δ-opioid receptor % Inh @10 μM; for GTPγS δ-RelEfficacy @200 nM: 200 nM compound, relative to calculated max of SNC80 dose response. On the procedure: Methods: NG108-15 cell membranes were purchased from Applied Cell Sciences (Rockville, Md.). 5 mg/mL of membrane protein was suspended in 10 mM TRIS-HCl pH 7.2, 2 mM EDTA, 10% sucrose. Membranes were maintained at 4-8° C. A 1 mL volume of membranes was added into 10 mL cold binding assay buffer. The assay buffer contained 50 mM Tris, pH 7.6, 5 mM MgCl2, 100 mM NaCl, 1 mM DTT and 1 mM EGTA. The membrane suspension was homogenized twice with a Polytron, and centrifuged at 3000 rpm for 10 min. The supernatant was then centrifuged at 18,000 rpm for 20 min. Ten mL of assay buffer was added into the pellet containing tube. The pellet and buffer were mixed with a Polytron.
Incubation procedure: The pellet membranes (75 μg/mL) were preincubated with SPA beads (10 mg/mL) at 25° C. for 45 min in the assay buffer. The SPA beads (5 mg/mL) coupled with membranes (37.5 μg/mL) were then incubated with 0.1 nM [^35S]GTPγS in the same Tris buffer containing 100 μM GDP in total volume of 200 μL. 200 nM of receptor agonists was used to stimulate [^35S]-GTPγS binding. The basal binding was tested in the absence of agonists and non-specific binding was tested in the presence of 10 μM unlabeled GTPγS.
Data % of Basal=(stimulated−non specific)*100/(basal−non specific). Relative Efficacy of a compound at 200 nM=(% of Basal of test compound at 200 nM)/(Calculated Max of SNC80 dose response. Curve in prism).

The target of the next experiment is T3, delta opioid receptor (Rattus norvegicus, UniProt P33533).
T3 construct: from tissue; host or cells: forebrain of male Wistar rats
T3 sequence (P33533 whole entry): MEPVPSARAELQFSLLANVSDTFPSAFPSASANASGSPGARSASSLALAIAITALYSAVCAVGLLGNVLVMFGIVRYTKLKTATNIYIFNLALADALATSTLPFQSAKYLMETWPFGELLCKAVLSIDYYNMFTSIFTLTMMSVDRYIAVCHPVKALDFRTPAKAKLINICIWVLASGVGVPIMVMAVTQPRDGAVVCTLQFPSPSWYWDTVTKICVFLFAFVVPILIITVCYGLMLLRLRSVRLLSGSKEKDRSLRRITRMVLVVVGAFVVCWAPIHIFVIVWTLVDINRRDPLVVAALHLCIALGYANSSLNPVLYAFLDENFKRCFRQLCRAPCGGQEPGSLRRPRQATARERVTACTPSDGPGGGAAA
The experiment can be described thus: Rat brain delta opioid receptor binding assay. On the procedure:
as §1, with “the delta” for “the mu”, “peptide ligand ˜4” for “peptide ligand, ˜0.8”, “nM [^3H]DPDPE or 0.25 nM [^3H]naltrindole” for “nM [^3H]DAMGO,”, “total” for “total assay”, “(pH 7.4),” for “(pH 7.4)”, “area 2×50” for “area 2×40”
as §2

Where [1] appears, read: read-out: GTPγS δ-opioid receptor EC50.
[2] abbreviates: rat forebrain membranes, ~4 nM [3H]DPDPE, read-out: δ-binding (DPDPE ligand) Ki.
[3] abbreviates: [3H]naltrindole ligand, read-out: δ-binding (Naltrindole ligand) Ki.

T2 sequence (P32300 whole entry): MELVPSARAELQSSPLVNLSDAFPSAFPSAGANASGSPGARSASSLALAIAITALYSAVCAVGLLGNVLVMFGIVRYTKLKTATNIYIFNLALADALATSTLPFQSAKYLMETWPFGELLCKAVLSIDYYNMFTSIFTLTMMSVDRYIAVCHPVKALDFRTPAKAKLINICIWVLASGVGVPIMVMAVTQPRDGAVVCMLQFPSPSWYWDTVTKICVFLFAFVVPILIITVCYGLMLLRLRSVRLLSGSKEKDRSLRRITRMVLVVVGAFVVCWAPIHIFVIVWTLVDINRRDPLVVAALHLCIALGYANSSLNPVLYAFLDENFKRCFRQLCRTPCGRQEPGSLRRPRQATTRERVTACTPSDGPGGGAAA
T1 sequence (P33535 whole entry): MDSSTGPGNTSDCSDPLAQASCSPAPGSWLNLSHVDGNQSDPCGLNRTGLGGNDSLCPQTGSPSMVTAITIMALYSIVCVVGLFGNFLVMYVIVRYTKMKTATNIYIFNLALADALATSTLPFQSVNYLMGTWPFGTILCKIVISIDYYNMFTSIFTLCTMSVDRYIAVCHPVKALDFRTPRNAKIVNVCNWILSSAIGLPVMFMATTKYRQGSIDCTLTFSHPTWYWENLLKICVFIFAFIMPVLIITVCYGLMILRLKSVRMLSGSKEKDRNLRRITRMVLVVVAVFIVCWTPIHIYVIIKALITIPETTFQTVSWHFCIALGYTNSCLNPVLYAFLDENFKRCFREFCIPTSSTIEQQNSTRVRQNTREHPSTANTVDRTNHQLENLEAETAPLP

One may read the Ki as the dissociation constant of the complex between target and ligand, obtained from inhibition or displacement. Usually EC50 stands for the concentration that produces a half-maximal response. For the compound `COc1ccc(Oc2nc(-c3ccc(OC)nc3)cnc2NC[C@@H]2CCCN2)cc1` [Cpd 1], the results for the Ki at mu opioid receptor and on delta opioid receptor (setting [2]) were 2390 nM and 0.6 nM, respectively. Also, the “GTPγS δ-opioid receptor Rel Efficacy” value on δ-opioid receptor turned out to be 0.8696. Further, the inhibition at 10 µM at δ-opioid receptor came to 6.57%. In addition, the concentration for a half-maximal effect (EC50) at δ-opioid receptor (setting [1]) amounted to 58.5 nM.

Consider `COc1ccc(Oc2nc(-c3cccnc3)cnc2NC[C@@H]2CCCN2)cc1` [Cpd 2, [3-(4-Methoxy-phenoxy)-5-pyridin-3-yl-pyrazin-2-yl]-pyrrolidin-2-(S)-ylmethyl-amine], for which the Ki at mu opioid receptor amounted to 816 nM. At δ-opioid receptor, the “GTPγS δ-opioid receptor Rel Efficacy” value amounted to 1.0430 and the inhibition at 10 µM was found to be 1%. On δ-opioid receptor (setting [1]), the concentration for a half-maximal effect (EC50) worked out at 29.7 nM. At delta opioid receptor (setting [2]), the Ki came to 2.1 nM.

Take `COc1ccc(Oc2nc(C#Cc3cccnc3)cnc2NC[C@@H]2CCCN2)cc1` [Cpd 3, [3-(4-Methoxy-phenoxy)-5-pyridin-3-ylethynyl-pyrazin-2-yl]-pyrrolidin-2-(S)-ylmethyl-amine]: the Ki at mu opioid receptor turned out to be 3240 nM; on delta opioid receptor (setting [2]), 1.5 nM. Moreover, at δ-opioid receptor, the “GTPγS δ-opioid receptor Rel Efficacy” value is 1.0797. Besides, on δ-opioid receptor, the inhibition at 10 µM is 1%. In addition, the EC50 on δ-opioid receptor (setting [1]) worked out at 46.2 nM.

With `COCC#Cc1cnc(NC[C@@H]2CCCN2)c(Oc2ccc(OC)cc2)n1` [Cpd 4], the Ki on mu opioid receptor amounted to 4980 nM. For the same compound, at δ-opioid receptor, the “GTPγS δ-opioid receptor Rel Efficacy” value came out at 0.9477 and the inhibition at 10 µM is 1%. The EC50 on δ-opioid receptor (setting [1]) is 82.5 nM. Further, the Ki on delta opioid receptor (setting [2]) turned out to be 1.9 nM.

In the case of `COc1ccc(Oc2nc(-c3cncnc3)cnc2NC[C@@H]2CCCN2)cc1F` [Cpd 8], the results for the Ki on mu opioid receptor and at delta opioid receptor (setting [2]) were 202 nM and 0.8 nM, respectively. Moreover, the “GTPγS δ-opioid receptor Rel Efficacy” value at δ-opioid receptor is listed as 1.0302. Further, the EC50 at δ-opioid receptor (setting [1]) came out at 148 nM.

Take `COc1ccc(Oc2nc(-c3cncc(C#N)c3)cnc2NCC2(N)CCCC2)cc1` [Cpd 21]: the “GTPγS δ-RelEfficacy @200 nM” value at δ-opioid receptor is 0.2481. In addition, the inhibition constant (Ki) at delta opioid receptor (setting [3]) turned out to be 0.6 nM.

Take `COc1ccc(Oc2nc(-c3cncnc3)cnc2NCC2(N)CCCC2)cc1` [Cpd 22]: at δ-opioid receptor, the “GTPγS δ-RelEfficacy @200 nM” value is listed as 0.2384. Moreover, the inhibition constant Ki at delta opioid receptor (setting [3]) came to 2.9 nM.

`COc1ccc(Cc2nc(-c3cncc(C#N)c3)cnc2NC[C@@H]2CCCN2)cc1` [Cpd 23]: at δ-opioid receptor, the “GTPγS δ-RelEfficacy @200 nM” value is 0.1174. The Ki at delta opioid receptor (setting [3]) was 2.4 nM.

`COc1ccc(Oc2nc(-c3cncc(C#N)c3)cnc2NC[C@@H]2CCCN2)cc1` [Cpd 24]: the “GTPγS δ-RelEfficacy @200 nM” value on δ-opioid receptor was 0.1669. In addition, the Ki at delta opioid receptor (setting [3]) came to 0.2 nM.

`COc1ccc(Oc2nc(-c3cncc(C#N)c3)cnc2NC[C@@H]2CCCN2)cc1F` [Cpd 25]: on δ-opioid receptor, the “GTPγS δ-opioid receptor Rel Efficacy” value amounted to 1.0387 and the “GTPγS δ-RelEfficacy @200 nM” value is 0.9130. Further, the concentration for a half-maximal effect (EC50) at δ-opioid receptor (setting [1]) was found to be 31.3 nM. On delta opioid receptor (setting [3]), the Ki was determined as 0.2 nM.

As for `COc1ccc(Oc2nc(-c3cncc(C#N)c3)cnc2NC[C@@H]2CCCN2)c(F)c1` [Cpd 26], on δ-opioid receptor, the “GTPγS δ-opioid receptor Rel Efficacy” value turned out to be 1.0534 and the “GTPγS δ-RelEfficacy @200 nM” value is 1.0180. The concentration giving a half-maximal response (EC50) at δ-opioid receptor (setting [1]) amounted to 27.1 nM. Besides, the Ki at delta opioid receptor (setting [3]) was 0.2 nM.

On to `N#CCc1ccc(Oc2nc(-c3cncc(C#N)c3)cnc2NC[C@@H]2CCCN2)cc1` [Cpd 27], for which, at δ-opioid receptor, the “GTPγS δ-opioid receptor Rel Efficacy” value is given as 1.0035 and the “GTPγS δ-RelEfficacy @200 nM” value is on record as 0.9179. Besides, the EC50 at δ-opioid receptor (setting [1]) was 34.2 nM. Moreover, on delta opioid receptor (setting [3]), the Ki turned out to be 6.4 nM.

As to `Cc1ccc(Oc2nc(-c3cncc(C#N)c3)cnc2NC[C@@H]2CCCN2)cn1` [Cpd 28], the “GTPγS δ-RelEfficacy @200 nM” value at δ-opioid receptor is listed as 0.1492. Further, the Ki on delta opioid receptor (setting [3]) is 13.2 nM.

`N#Cc1cncc(-c2cnc(NC[C@@H]3CCCN3)c(Oc3ccc(OC(F)F)cc3)n2)c1` [Cpd 29]: at δ-opioid receptor, the “GTPγS δ-RelEfficacy @200 nM” value is on record as 0.0000. Besides, at delta opioid receptor (setting [3]), the inhibition constant Ki amounted to 0.3 nM.

As to `COc1ccc(Oc2nc(-c3cncc(C#N)c3)cnc2N2CCNCC2)cc1` [Cpd 30, 5-[3′-(4-Methoxy-phenoxy)-3,4,5,6-tetrahydro-2H-[1,2′]bipyrazinyl-5′-yl]-nicotinonitrile], at δ-opioid receptor, the “GTPγS δ-opioid receptor Rel Efficacy” value is on record as 1.1345 and the “GTPγS δ-RelEfficacy @200 nM” value is 0.5999. In addition, the 50% effective concentration (EC50) on δ-opioid receptor (setting [1]) worked out at 111 nM. Also, the Ki on delta opioid receptor (setting [3]) was 0.1 nM.

In the case of `COc1ccc(Oc2nc(-c3cccnc3)cnc2N2CCNCC2)cc1` [Cpd 31], on δ-opioid receptor, the “GTPγS δ-opioid receptor Rel Efficacy” value turned out to be 1.0012 and the “GTPγS δ-RelEfficacy @200 nM” value is recorded as 0.7579. Further, the concentration for a half-maximal effect (EC50) on δ-opioid receptor (setting [1]) was 8.1 nM. Moreover, the Ki at delta opioid receptor (setting [3]) stood at 0.3 nM.

Regarding `COc1ccc(Oc2nc(-c3cncc(C#N)c3)cnc2N[C@H]2CC[C@@H](N)CC2)cc1` [Cpd 35], on δ-opioid receptor, the half-maximal effective concentration (EC50) was determined as 95.2 nM, the “GTPγS δ-opioid receptor Rel Efficacy” value is reported as 1.2053 and the “GTPγS δ-RelEfficacy @200 nM” value was 0.4157. At delta opioid receptor, the affinity corresponds to a Ki of 0.4 nM.

Regarding `N#Cc1cncc(-c2cnc(NC[C@@H]3CCCN3)c(Oc3ccc(OC(F)(F)F)cc3)n2)c1` [Cpd 36], on δ-opioid receptor, the “GTPγS δ-opioid receptor Rel Efficacy” value amounted to 0.9719 and the “GTPγS δ-RelEfficacy @200 nM” value is on record as 0.5598. Besides, the concentration for a half-maximal effect (EC50) at δ-opioid receptor (setting [1]) is 29.7 nM. In addition, the Ki at delta opioid receptor (setting [3]) worked out at 1.4 nM.

For the compound `CCc1ccc(Oc2nc(-c3cncc(C#N)c3)cnc2NC[C@@H]2CCCN2)cc1` [Cpd 37], the “GTPγS δ-RelEfficacy @200 nM” value at δ-opioid receptor is on record as 0.3353. Further, the inhibitory constant (Ki) on delta opioid receptor (setting [3]) worked out at 0.5 nM.

Take `N#Cc1cncc(-c2cnc(NC[C@@H]3CCCN3)c(Oc3cccc(O)c3)n2)c1` [Cpd 38, 5-{6-(3-Hydroxy-phenoxy)-5-[(pyrrolidin-2-(S)-ylmethyl)-amino]-pyrazin-2-yl}-nicotinonitrile]: at δ-opioid receptor, the “GTPγS δ-opioid receptor Rel Efficacy” value is 1.1104 and the “GTPγS δ-RelEfficacy @200 nM” value was 0.6472. Moreover, the EC50 at δ-opioid receptor (setting [1]) stood at 66.6 nM. Also, at delta opioid receptor (setting [3]), the Ki was 0.086 nM.

As for `N#Cc1cncc(-c2cnc(NC[C@@H]3CCCN3)c(Oc3ccc4occc4c3)n2)c1` [Cpd 39], on δ-opioid receptor, the “GTPγS δ-opioid receptor Rel Efficacy” value is reported as 1.0736 and the “GTPγS δ-RelEfficacy @200 nM” value was 1.0765. Further, on δ-opioid receptor (setting [1]), the concentration for a half-maximal effect (EC50) was 4.6 nM. Further, at delta opioid receptor (setting [3]), the inhibition constant (Ki) was found to be 0.2 nM.
